Results on one compound are retold here after paper PMC4099323, “Inhibition of Catalase by Tea Catechins in Free and Cellular State: A Biophysical Approach” (PLoS ONE, 2014).

pKd: −log10 of the molar value.

For experiment [1], the target named is T1, Catalase (from bovine liver) (Bos taurus, UniProt P00432).
T1 construct: Catalase (from bovine liver); purchased Sigma-Aldrich, St. Louis, MO, USA; host or cells: bovine liver
T1 sequence (P00432 2-527 limits assumed): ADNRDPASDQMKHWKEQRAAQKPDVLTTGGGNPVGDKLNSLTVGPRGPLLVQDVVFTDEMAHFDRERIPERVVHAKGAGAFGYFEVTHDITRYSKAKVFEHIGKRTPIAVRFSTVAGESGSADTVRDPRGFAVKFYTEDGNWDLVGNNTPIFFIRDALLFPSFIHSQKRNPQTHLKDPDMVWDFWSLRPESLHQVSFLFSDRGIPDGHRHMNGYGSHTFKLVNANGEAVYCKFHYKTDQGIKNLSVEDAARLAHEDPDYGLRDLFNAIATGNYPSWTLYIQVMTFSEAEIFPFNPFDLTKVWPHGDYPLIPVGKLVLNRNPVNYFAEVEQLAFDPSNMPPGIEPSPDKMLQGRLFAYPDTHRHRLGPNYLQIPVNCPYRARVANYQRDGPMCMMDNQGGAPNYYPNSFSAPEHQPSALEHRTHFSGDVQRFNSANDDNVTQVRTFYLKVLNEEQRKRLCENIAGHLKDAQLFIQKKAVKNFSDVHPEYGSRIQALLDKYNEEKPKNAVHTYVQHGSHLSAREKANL
The experiment is described as follows: Circular dichroism: catechin-induced conformational change in catalase. The settings on record: catalase 1 µM, ligands 3 µM each, 25°C. How it is done:
All the CD experiments were carried out on a Jasco-815 automatic spectropolarimeter (Jasco International Co., Ltd. Hachioji, Japan) equipped with a peltier cuvette holder and temperature controller PFD425 L/15. The catalase concentration and path length of the cuvette used were 1 µM and 0.1 cm, respectively. The instrument parameters were set at scanning speed of 50 nm/min, bandwidth of 1.0 nm and sensitivity of 100 milli degree. The molar ellipticity values are expressed in terms of mean residue molar ellipticity, in units of deg. cm^2 dmol^−1.
CD allows investigation of the conformational changes that occur in a protein upon ligand binding. The CD spectra of catalase at pH 7.4 in the absence and in the presence of EGC, EC, ECG, EGCG, and 3-AT at 25°C are represented in Figure 5 (a – f). […] The negative band at 208 and 220 nm decreased in intensity with the addition of various catechins, which is indicative of the loss of α-helicity upon interaction. […] From the CD spectra, the effect of catechins on the secondary structure of catalase is in the following order: 3-AT>EGCG>ECG>EC>EGC.

The target in experiment [2] is G3BP1. Conditions: read-out: dissociation constant (K d); cited from earlier work.
For experiment [3], the target named is vimentin. The settings on record: read-out: dissociation constant (K d); cited from earlier work.
In experiment [4] the test system is CDK4. Conditions: MCF7 breast cancer cell lines, 30 µM; cited from earlier work.
Experiment [5] has as its target T1, Catalase (from bovine liver). As to the kind of experiment: Isothermal titration calorimetry of catechins binding to catalase. Conditions: 25°C. On the procedure: The energetics of the binding of catechins to catalase was studied by ITC using a MicroCal ITC200, (Northampton, MA, USA). All solutions were degassed under vacuum (140 mbar, 10 min) on the MicroCal’s Thermovac unit to eliminate air bubble formation inside the calorimeter cell. Briefly, the calorimeter syringe was filled with a concentrated solution of catechins (10 µM each). Successive injections of this solution into 1 µM solution of catalase in the calorimeter cell were effected from the rotating syringe with constant stirring of the solution. The titration and analysis were performed through Origin 7 software provided with the unit.
ITC directly measures the heat released during a chemical reaction. ITC can reveal the stoichiometry, enthalpy free energy, and entropy changes that occur over the course of a reaction, [46]. Data obtained from the titration are presented by the series of peaks corresponding to each injection. Usually, this representation is transformed into the apparent heat change between two injections as a function of the titrant ratio by means of integration of power differential with regard to time. ITC has been used mainly to quantify interactions in various biochemical systems [47]–[49]. ITC has been used in the present study to determine binding affinity and other thermodynamic parameters of catechins-catalase interaction. Representative isothermal calorimetric heat profiles for the binding of catechins-catalase interaction, at physiological pH and 25°C are shown in Figure 4 (A–D). The data were corrected for the heat of dilution of catechins, which was determined in a separate set of experiments under identical conditions. The titration and analysis were performed using one-site binding model through Origin 7 software provided with the unit. From Figure 4 it is observed that the titration of catalase with all the four catechins yield negative heat deflections. EC, EGC, ECG, and EGCG bind to catalase with binding constants 2.13×10^5, 1.92×10^5, 6.36×10^5, and 8.19×10^5 M^−1, respectively, as determined by the following equation: ΔG = −RT ln K, where ΔG is the free energy, R and T are the gas constant and temperature, respectively, K is the binding constant.
A general note: ITC needs no label: the signal is the heat of the interaction.

The mark [6] stands for this setting: ITC, directly extracted from the experiment.

On to `O=C(O[C@@H]1Cc2c(O)cc(O)cc2O[C@@H]1c1cc(O)c(O)c(O)c1)c1cc(O)c(O)c(O)c1` [EGCG, (−)-epigallocatechin gallate], for which the “order of effect on the secondary structure of catalase (loss of α-helicity)” value in experiment [1] is 3-AT>EGCG>ECG>EC>EGC. For the same compound, the pKd in experiment [2] was 6.40. For the same compound, the pKd in experiment [3] is 8.48. In addition, in experiment [4], the “inhibition of CDK4” value is on record as “inhibited”. For the same compound, the ΔG in experiment [5] (ITC, calculated from the average values of ΔH) was -7.95 kcal/mol. In experiment [5] (setting [6]), the ΔH is -450 ± 22.5 kcal/mol and the ΔS is recorded as −1.48×10^3 cal/mol/K. In addition, the Kd in experiment [5] (one-site binding model, from ΔG = −RT ln K, read-out: binding constant with catalase (ITC) (converted)) is 1220 nM.
